This is an account of results in patent publication US20210085467A1, “SELECTIVE TARGETED RELEASE” (WEST VIRGINIA UNIVERSITY, priority 2018, published 2021).

One assay deals with biofilm infections. Briefly: Drug levels necessary to treat biofilm infections.
Another assay has as its system free floating bacteria. Briefly: Drug levels necessary to treat free floating bacteria. The note with it: planktonic bacteria.

As for `CN[C@H](CC(C)C)C(=O)N[C@H]1C(=O)N[C@@H](CC(N)=O)C(=O)N[C@H]2C(=O)N[C@H]3C(=O)N[C@H](C(=O)N[C@H](C(=O)O)c4cc(O)cc(O)c4-c4cc3ccc4O)[C@H](O)c3ccc(c(Cl)c3)Oc3cc2cc(c3O[C@@H]2O[C@H](CO)[C@@H](O)[C@H](O)[C@H]2O[C@H]2C[C@](C)(N)[C@H](O)[C@H](C)O2)Oc2ccc(cc2Cl)[C@H]1O` [vancomycin], the “drug levels necessary to treat biofilm infections” value with biofilm infections fell in the range of 10 to 100 µg/mL. For the same compound, the “drug levels necessary to treat free floating bacteria” value in the assay with free floating bacteria lay within 1 to 10 µg/mL.
